Laboratory results from patent publication US11873291B2, “Quinoline cGAS antagonist compounds” (ImmuneSensor Therapeutics, Inc., priority 2020, dated 2024).
pIC50: −log10 of the molar value. Read-outs that look alike come from different tables or passages of the source.

What was measured:
[1] = target: T1, recombinant human cGAS (aa147-522) (Homo sapiens, UniProt Q8N884); assay: In vitro inhibition assay of cGAS activity (ATP consumption, KinaseGlo Max); type: biochemical
T1 construct: recombinant human cGAS (aa147-522); His6-SUMO (cleaved yes); made in house; host or cells: E. coli BL21/pLys
In short: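 De-tagged recombinant human cGAS (aa147-522, 1.5 μg/mL) was incubated 20 min at 37 °C with herring testis DNA, 6.6 μM ATP and 0.1 mM GTP in Tris pH 7.5/MgCl2 buffer plus serial compound dilutions. Remaining ATP was read by KinaseGlo Max luminescence, and IC50 was fitted from % ATP consumption versus log concentration.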

[2] = test system: cGAS activity in Reporter THP1 cell line; assay: Cellular assay to measure cGAS activity: ISRE-Gaussia luciferase reporter THP1 cells transfected with ISD; type: cell-based; details: Homo sapiens
Description: Cellular assay to measure cGAS activity: Reporter THP1 cell line harboring a gene encoding Gaussia Luciferase under the control of 5 tandem repeats of interferon-stimulated response elements (ISRE) fused to an ISG54 minimal promoter was used to test inhibition of cGAS activity by synthetic compounds in human cells. These cells were plated on 96-well plates at 0.3×10^6/well and incubated with serial dilutions of compounds or DMSO for 5 min, followed by transfection of 2 μg/mL of ISD (Interferon Stimulatory DNA, a 45 bp DNA oligo) or mock transfected using lipofectamine 2000 (Life Technology) method, according to manufacturer's instructions. 16 hours later, 15 μL of the media from each well was transferred to a new plate, 50 μL of solution containing 50 mM Hepes-NaOH, pH 6.5, 50 mM NaCl, 10 mM EDTA, 1 μM of coelenterazine was added to each well and luminescence was measured immediately. Fold increase in luminescence compared to mock transfection was plotted against concentrations of each compound, and IC50 is calculated using Graphpad. To evaluate the specificity of a compound, the same procedure was performed except that cells were transfected with 2 μg/mL poly(I:C) or infected with Sendai Virus (SeV) at 50 Unit/mL, which are known to activate the RIG-I-MAVS pathway. A specific inhibitory compound should inhibit interferon induction by DNA but have minimal effect on poly(I:C) or Sendai virus induced interferon reporter gene expression.
The letter codes for cGAS IC50 include: A (<2 μM); B (2-10 μM); C (>10 μM).

[3] = Table 3, read-out: cGAS Inhibition Results IC50
[4] = THP-1, untitled table after Table 4 (continuation)
[5] = Table 2, read-out: cGAS Inhibition Results IC50
[6] = THP-1, Table 4, Gaussia luciferase

T1 sequence (Q8N884 147-522): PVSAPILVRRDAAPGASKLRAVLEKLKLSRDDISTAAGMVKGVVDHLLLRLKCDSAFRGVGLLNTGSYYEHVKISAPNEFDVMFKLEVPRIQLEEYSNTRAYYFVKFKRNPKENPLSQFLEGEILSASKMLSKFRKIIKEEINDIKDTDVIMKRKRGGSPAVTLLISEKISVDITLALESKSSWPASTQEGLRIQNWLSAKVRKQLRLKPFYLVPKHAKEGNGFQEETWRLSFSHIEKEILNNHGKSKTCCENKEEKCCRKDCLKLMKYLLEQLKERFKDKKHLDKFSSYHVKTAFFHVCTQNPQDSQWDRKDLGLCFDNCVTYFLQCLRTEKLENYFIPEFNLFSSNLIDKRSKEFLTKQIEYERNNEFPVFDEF

Compound	pIC50 [1, 3]	pIC50 [2, 4]	pIC50 [1, 5]	pIC50 [2, 6]
O=C(O)CCCCCCNc1cc(-n2ccnc2)c2ccc(Cl)c(Cl)c2n1 [I-831]	> 5.70	5.00 to 5.70	–	–
COc1cc(C(=O)O)cc(-c2cc(-n3ccnc3)c3ccc(Cl)cc3n2)c1 [I-24, 3-(7-chloro-4-(1H-imidazol-1-yl)quinolin-2-yl)-5-methoxybenzoic acid]	–	–	> 5.70	5.00 to 5.70
O=C(O)CCOCC[C@@H]1CC[C@@H](C(=O)O)N1c1cc(-n2ccnc2)c2ccc(Cl)c(Cl)c2n1 [I-714, (2S,5S)-5-(2-(2-carboxyethoxy)ethyl)-1-(7,8-dichloro-4-(1H-imidazol-1-yl)quinolin-2-yl)pyrrolidine-2-carboxylic acid]	> 5.70	–	–	5.00 to 5.70
COC(=O)CCOC[C@@H]1CN(c2cc(-c3cn[nH]c3)c3ccc(Cl)c(Cl)c3n2)CCO1 [I-752]	> 5.70	–	–	< 5.00
C[C@H]1[C@@H](C(=O)O)N(c2cc(-n3ccnc3)c3ccc(Cl)c(Cl)c3n2)C[C@@H]1O [I-780]	4.52 to 5.70	< 5.00	–	–
COC(=O)COC[C@@H]1CCCN1c1cc(-n2ccnc2)c2ccc(Cl)c(Cl)c2n1 [I-667, methyl (S)-2-((1-(7,8-dichloro-4-(1H-imidazol-1-yl)quinolin-2-yl)pyrrolidin-2-yl)methoxy)acetate]	> 5.70	–	–	> 5.70
O=C(O)CCOC[C@@H]1C[C@@H]2C[C@@H]2N1c1cc(-n2ccnc2)c2ccc(Cl)c(Cl)c2n1 [I-707]	> 5.70	–	–	> 5.70
O=C(O)CCOC[C@H](O)[C@@H]1CCCN1c1cc(-n2ccnc2)c2ccc(Cl)c(Cl)c2n1 [I-724, 3-((R)-2-((S)-1-(7,8-dichloro-4-(1H-imidazol-1-yl)quinolin-2-yl)pyrrolidin-2-yl)-2-hydroxyethoxy)propanoic acid]	> 5.70	–	–	5.00 to 5.70
O=C(O)CCOC[C@@H]1CCCN1c1cc(-n2ccnc2)c2ccc(Cl)c(Cl)c2n1 [I-664, (S)-3-((1-(7,8-dichloro-4-(1H-imidazol-1-yl)quinolin-2-yl)pyrrolidin-2-yl)methoxy)propanoic acid]	> 5.70	–	–	> 5.70
O=C(O)[C@@H]1C[C@@H]2C[C@@H]2N1c1cc(-n2ccnc2)c2ccc(Cl)c(Cl)c2n1 [I-469]	> 5.70	–	–	> 5.70
O=C(O)Cc1ccccc1OC[C@@H]1CCCN1c1cc(-n2ccnc2)c2ccc(Cl)c(Cl)c2n1 [I-734]	> 5.70	–	–	> 5.70
COC(=O)[C@@H]1CC2C[C@@H]2N1c1cc(-n2ccnc2)c2ccc(Cl)c(Cl)c2n1 (some centres unmarked) [I-576]	> 5.70	–	–	> 5.70
COC(=O)/C=C/[C@@H]1CCCN1c1cc(-n2ccnc2)c2ccc(Cl)c(Cl)c2n1 [I-687]	4.52 to 5.70	–	–	< 5.00
O=C(O)CCOCCN(CCOCCC(=O)O)c1cc(-n2ccnc2)c2ccc(Cl)c(Cl)c2n1 [I-839]	> 5.70	< 5.00	–	–
O=C(O)COC[C@@H]1CN(c2cc(-c3cn[nH]c3)c3ccc(Cl)c(Cl)c3n2)CCO1 [I-740]	> 5.70	–	–	< 5.00
COC(=O)CCNC(=O)[C@@H]1[C@@H](O)CCN1c1cc(-n2ccnc2)c2ccc(Cl)c(Cl)c2n1 [I-791, methyl 3-((2S,3S)-1-(7,8-dichloro-4-(1H-imidazol-1-yl)quinolin-2-yl)-3-hydroxypyrrolidine-2-carboxamido)propanoate]	4.52 to 5.70	< 5.00	–	–
O=C(O)c1cnn(CC[C@@H]2CCCN2c2cc(-n3ccnc3)c3ccc(Cl)c(Cl)c3n2)c1 [I-730]	> 5.70	–	–	5.00 to 5.70
O=C(O)CCOC[C@@H]1C[C@H](O)CN1c1cc(-n2ccnc2)c2ccc(Cl)c(Cl)c2n1 [I-702]	> 5.70	–	–	5.00 to 5.70
CC(C)OC(=O)[C@@H]1CCCN1c1cc(-n2ccnc2)c2ccc(Cl)c(Cl)c2n1 [I-595]	4.52 to 5.70	–	–	5.00 to 5.70
O=C(O)Cc1cccc(OC[C@@H]2CCCN2c2cc(-n3ccnc3)c3ccc(Cl)c(Cl)c3n2)c1 [I-736]	> 5.70	–	–	> 5.70
NS(=O)(=O)C1CCCN(c2cc(-n3ccnc3)c3ccc(Cl)c(Cl)c3n2)C1 (centres unmarked) [I-116]	–	–	> 5.70	5.00 to 5.70
CC(C)(C)O[C@@H]1C[C@@H](COCCC(=O)O)N(c2cc(-n3ccnc3)c3ccc(Cl)c(Cl)c3n2)C1 [I-796]	> 5.70	> 5.70	–	–
O=C(O)c1cnn(C[C@@H]2CCCN2c2cc(-n3ccnc3)c3ccc(Cl)c(Cl)c3n2)c1 [I-728]	> 5.70	–	–	5.00 to 5.70
O=C(O)CC[C@@H]1CCCN1c1cc(-n2ccnc2)c2ccc(Cl)c(Cl)c2n1 [I-679]	> 5.70	–	–	5.00 to 5.70
CCN(CCOCCC(=O)O)c1cc(-n2ccnc2)c2ccc(Cl)c(Cl)c2n1 [I-832]	> 5.70	> 5.70	–	–

Compound	pIC50 [1, 3]	pIC50 [2, 4]	pIC50 [1, 5]	pIC50 [2, 6]
COC(=O)CCOC[C@@H]1CCCN1c1cc(-n2ccnc2)c2ccc(Cl)c(Cl)c2n1 [I-665, methyl (S)-3-((1-(7,8-dichloro-4-(1H-imidazol-1-yl)quinolin-2-yl)pyrrolidin-2-yl)methoxy)propanoate]	> 5.70	–	–	> 5.70
COc1c(Cl)ccc2c(-n3ccnc3)cc(N3CCC[C@H]3COCCC(=O)O)nc12 [I-860]	> 5.70	< 5.00	–	–
CCOC(=O)[C@@H]1[C@@H](O)[C@H](C)CN1c1cc(-n2ccnc2)c2ccc(Cl)c(Cl)c2n1 [I-779]	4.52 to 5.70	< 5.00	–	–
O=C(O)CCOCc1ccc(Cl)c(-c2cc(-n3ccnc3)c3ccc(Cl)c(Cl)c3n2)c1 [I-878]	> 5.70	> 5.70	–	–
COC(=O)[C@@H]1[C@@H](O)CCN1c1cc(-n2ccnc2)c2ccc(Cl)c(Cl)c2n1 [I-596]	4.52 to 5.70	–	–	> 5.70
O=C(O)COC[C@@H]1CCCN1c1cc(-n2ccnc2)c2ccc(Cl)c(Cl)c2n1 [I-666, (S)-2-((1-(7,8-dichloro-4-(1H-imidazol-1-yl)quinolin-2-yl)pyrrolidin-2-yl)methoxy)acetic acid]	> 5.70	–	–	> 5.70
COC(=O)/C=C/C[C@@H]1CCCN1c1cc(-n2ccnc2)c2ccc(Cl)c(Cl)c2n1 [I-686]	4.52 to 5.70	–	–	> 5.70
O=C(O)CCCCCNc1cc(-n2ccnc2)c2ccc(Cl)c(Cl)c2n1 [I-690]	> 5.70	–	–	> 5.70
O=C(COC[C@@H]1CCCN1c1cc(-n2ccnc2)c2ccc(Cl)c(Cl)c2n1)NO [I-761]	> 5.70	< 5.00	–	–
O=C(O)C[C@@H]1CCCN1c1cc(-n2ccnc2)c2ccc(Cl)c(Cl)c2n1 [I-443]	–	–	> 5.70	5.00 to 5.70
COC(=O)[C@@H]1[C@@H](OC(C)=O)CCN1c1cc(-n2ccnc2)c2ccc(Cl)c(Cl)c2n1 [I-642, methyl (2S,3S)-3-acetoxy-1-(7,8-dichloro-4-(1H-imidazol-1-yl)quinolin-2-yl)pyrrolidine-2-carboxylate]	4.52 to 5.70	–	–	> 5.70
O=C(O)C[C@H]1CCCN1c1cc(-n2ccnc2)c2ccc(Cl)c(Cl)c2n1 [I-776]	> 5.70	< 5.00	–	–
O=C(O)CCOC[C@@H]1C[C@@H](N2CCOCC2)CN1c1cc(-n2ccnc2)c2ccc(Cl)c(Cl)c2n1 [I-799]	> 5.70	< 5.00	–	–
O=C(O)CCOC[C@@H]1CCCN1c1cc(-n2ccnc2)c2cc(Cl)c(Cl)c(Cl)c2n1 [I-876]	> 5.70	> 5.70	–	–
O=C(O)CCOC[C@@H]1C[C@@H](C2CCCCC2)CN1c1cc(-n2ccnc2)c2ccc(Cl)c(Cl)c2n1 [I-803]	> 5.70	> 5.70	–	–
O=C(O)C1COCCN1c1cc(-n2ccnc2)c2ccc(Cl)c(Cl)c2n1 (centres unmarked) [I-92]	–	–	> 5.70	< 5.00
O=C(O)CCOC[C@@H]1C[C@@H](OCc2ccccc2)CN1c1cc(-n2ccnc2)c2ccc(Cl)c(Cl)c2n1 [I-712]	> 5.70	–	–	> 5.70
O=C(O)COC[C@@H]1CCCN(c2cc(-n3ccnc3)c3ccc(Cl)c(Cl)c3n2)C1 [I-744]	> 5.70	–	–	> 5.70
O=C(O)CCOCC1CC(O)CN(c2cc(-n3ccnc3)c3ccc(Cl)c(Cl)c3n2)C1 (centres unmarked) [I-748]	> 5.70	–	–	< 5.00
O=C(O)COC[C@H]1CCCN(c2cc(-n3ccnc3)c3ccc(Cl)c(Cl)c3n2)C1 [I-743]	> 5.70	–	–	> 5.70
O=C(O)CCOCCNc1cc(-n2ccnc2)c2ccc(Cl)c(Cl)c2n1 [I-693]	> 5.70	–	–	< 5.00
COC(=O)[C@@H]1C[C@@H](F)CN1c1cc(-n2ccnc2)c2ccc(Cl)c(Cl)c2n1 [I-592]	4.52 to 5.70	–	–	5.00 to 5.70
COc1ccc(-c2cc(-n3ccnc3)c3ccc(Cl)c(Cl)c3n2)cc1COCCC(=O)O [I-884]	> 5.70	> 5.70	–	–
O=C(O)CCOCC[C@@H]1CCCN1c1cc(-n2ccnc2)c2ccc(Cl)c(Cl)c2n1 [I-672]	> 5.70	–	–	> 5.70
